Assay results as given in patent publication US9359338B2, “Cyclopropanecarboxamido-substitute aromatic compounds as anti-tumor agents” (Crown Bioscience Inc. (Taiwan), priority 2012, dated 2016).
pIC50: −log10 of the molar value. Read-outs that look alike come from different tables or passages of the source.

Key:
B-Raf kinase = B-Raf kinase (Homo sapiens (Human), UniProt P15056); experiment: Inhibitory activity at B-Raf kinase (ADP-GLO assay); assay type: biochemical
Procedure: Inhibitory Activity of Compounds at B-Raf Kinase
• [Experimental method]: Use ADP-GLO™ assay kit from Promega to evaluate the inhibitory activity of compounds at B-Raf • [Instrument]: PerKinElmer's ENVISION plate reader • [Material]: Optiplate-384 well plate (PerKinElmer), kinase buffer (50 mM Hepes pH7.5, 1 mM EGTA, 2 mM DTT, 10 mM Mg^2+, 0.05% BSA), B-Raf kinase (Millipore, catalogue #14-530-K), GST-MEK1 substrate (Carna, catalogue #07-141-10), Super pure ATP (Promega), ADP-GLO™ assay kit (Promega, catalogue # V9102), DMSO (Sigma, catalogue #34869), purified water (Millipore, type: Milli-Q). • [Study conditions]: Mix B-Raf kinase (final concentration: 5 nM) and compound (DMSO final concentration: 0.25%) and preincubate at 30° C. for 20 min, then add ATP (final concentration: 6 μM) and reaction substrate (final concentration: 30 nM), React for 2 hrs at 30° C. After reaction, add ADP-GLO™ reagent, react for 40 min at room temperature, then add ADP-GLO™ detecting agent, react for 30 min at room temperature. After that, use ENVSION to measure the […]. • [Samples]: Compounds in the examples and Sorafenib (positive control) • [Data analysis]: Use CBIS data analysis software to calculate IC50 values

pERK in MDA-MB-231 cells = experiment: Inhibitory activity at pERK (In Cell Western, MDA-MB-231 cells); assay type: cell-based; conditions: Homo sapiens
Method in brief: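 MDA-MB-231 cells were treated 2 h at 37 °C with 8 compound concentrations in 3-fold dilutions from 30 μM top (0.3% DMSO, DMEM with 0.1% BSA). Cells were then fixed, methanol-permeabilized and immunostained for pERK with PI counterstain. Fluorescence was read on Acumen and IC50 calculated.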

PLC-PRF-5 cells = experiment: Inhibition of proliferation of PLC-PRF-5 cells (ATPlite); assay type: cell-based; conditions: Homo sapiens
Method in brief: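 PLC-PRF-5 cells in DMEM/10% FBS, seeded 2 h before compound; 8-point 3-fold dilutions from 30 μM final top, 0.3% DMSO. After 96 h at 37 °C, 5% CO2, ATP content read by ATPlite luminescence; IC50 calculated.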

KDR kinase (790-1356 AA) = KDR kinase (790-1356 AA) (Homo sapiens (Human), UniProt P35968); experiment: Inhibitory activity at KDR kinase (Lance Ultra Ulight-TK assay); assay type: biochemical
Method in brief: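 TR-FRET (Eu-anti-phosphotyrosine PT66) with 20 nM KDR preincubated with compound 20 min at 30 °C in HEPES pH 7.5 buffer with Mg2+/Mn2+, 0.5% DMSO.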

[1] = MDA-MB-231, MDA-MB-231 cells, read-out: MDA-MB-231 pERK IC50
[2] = PLC-PRF-5, PLC-PRF-5 cells, read-out: PLC-PRF-5 cell proliferation IC50

Sequence of KDR kinase (790-1356 AA) (P35968 790-1356): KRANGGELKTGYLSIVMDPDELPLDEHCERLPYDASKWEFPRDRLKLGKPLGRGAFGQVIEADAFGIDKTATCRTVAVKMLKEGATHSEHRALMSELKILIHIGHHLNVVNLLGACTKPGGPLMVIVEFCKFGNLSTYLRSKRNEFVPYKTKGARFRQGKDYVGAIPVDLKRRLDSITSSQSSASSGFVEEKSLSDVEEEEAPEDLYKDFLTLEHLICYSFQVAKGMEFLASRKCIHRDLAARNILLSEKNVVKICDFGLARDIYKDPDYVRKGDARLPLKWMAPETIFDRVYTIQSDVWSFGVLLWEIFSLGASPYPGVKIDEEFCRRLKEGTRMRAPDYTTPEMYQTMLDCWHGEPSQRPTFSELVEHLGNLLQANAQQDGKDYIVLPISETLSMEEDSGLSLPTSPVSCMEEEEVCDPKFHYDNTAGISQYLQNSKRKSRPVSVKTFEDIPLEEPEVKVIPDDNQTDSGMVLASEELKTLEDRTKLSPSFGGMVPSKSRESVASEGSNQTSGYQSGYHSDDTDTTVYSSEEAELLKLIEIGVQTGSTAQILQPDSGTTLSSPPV
Sequence of B-Raf kinase (P15056 416-766): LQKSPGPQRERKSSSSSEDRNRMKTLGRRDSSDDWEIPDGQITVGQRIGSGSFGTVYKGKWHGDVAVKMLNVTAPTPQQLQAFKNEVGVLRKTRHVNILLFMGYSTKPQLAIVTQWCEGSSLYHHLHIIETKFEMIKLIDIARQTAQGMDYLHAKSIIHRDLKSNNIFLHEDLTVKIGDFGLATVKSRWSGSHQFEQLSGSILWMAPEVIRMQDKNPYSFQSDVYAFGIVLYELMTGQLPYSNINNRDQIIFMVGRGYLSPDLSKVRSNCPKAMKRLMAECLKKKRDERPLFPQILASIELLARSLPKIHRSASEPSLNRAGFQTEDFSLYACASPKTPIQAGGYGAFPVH

SMILES	pIC50 (B-Raf kinase)	pIC50 (pERK in MDA-MB-231 cells; [1])	pIC50 (PLC-PRF-5 cells; [2])	pIC50 (KDR kinase (790-1356 AA))	pIC50 (pERK in MDA-MB-231 cells; MDA-MB-231, read-out: MDA-MB-231 pERK IC50)	pIC50 (PLC-PRF-5 cells; PLC-PRF-5, read-out: PLC-PRF-5 cell proliferation IC50)
O=C(Nc1ccc(Cl)c(C(F)(F)F)c1)Nc1ccc(Oc2cc(NC(=O)C3CC3)ncn2)cc1F [Exe. 009]	7.59	7.69	5.44	8.05	–	–
Cc1cc(Oc2ccnc(NC(=O)C3CC3)c2)ccc1NC(=O)Nc1cccc(C(F)(F)F)c1 [Exe. 193]	8.17	8.13	5.64	7.96	–	–
CC1CN(c2cc(NC(=O)Nc3ccc(Oc4ccnc(NC(=O)C5CC5)c4)c(F)c3)cc(C(F)(F)F)c2)CC(C)O1 (stereo not shown) [Exe. 047]	7.13	7.27	6.17	8.21	–	–
O=C(Nc1ccc(Oc2ccnc(NC(=O)C3CC3)c2)cc1)Nc1ccc2c(c1)C(F)(F)CCO2 [Exe. 151]	8.48	8.44	6.22	8.35	–	–
CC(F)(F)c1ccnc(NC(=O)Nc2ccc(Oc3ccnc(NC(=O)C4CC4)c3)cc2F)c1 [Exe. 216]	8.00	7.93	6.27	7.97	–	–
CS(=O)(=O)c1cc(NC(=O)Nc2ccc(Oc3ccnc(NC(=O)C4CC4)c3)nc2)cc(C(F)(F)F)c1 [Exe. 130]	7.53	6.14	5.30	8.34	–	–
O=C(Nc1ccc(Oc2cc(NC(=O)C3CC3)ncn2)cc1)Nc1ccc(Cl)c(C(F)(F)F)c1 [Exe. 007]	7.61	7.34	5.14	8.24	–	–
CC(F)(F)c1cc(NC(=O)Nc2ccc(Oc3cc(NC(=O)C4CC4)ncn3)cc2F)ccc1Cl [Exe. 110]	7.62	7.87	5.80	8.14	–	–
Cc1cc(NC(=O)Nc2ccc(F)c(C(C)(F)F)c2)ccc1Oc1cc(NC(=O)C2CC2)ncn1 [Exe. 118]	6.53	7.26	6.15	8.13	–	–
O=C(Nc1cc(-c2ccncc2)cc(C(F)(F)F)c1)Nc1ccc(Oc2ccnc(NC(=O)C3CC3)c2)c(F)c1 [Exe. 159]	7.45	7.35	6.19	8.10	–	–
CC(F)(F)c1ccc(F)c(NC(=O)Nc2ccc(Oc3ccnc(NC(=O)C4CC4)c3)cc2F)c1 [Exe. 218]	8.11	8.51	7.68	8.04	–	–
O=C(Nc1cc(N2CCC(O)CC2)cc(C(F)(F)F)c1)Nc1ccc(Oc2ccnc(NC(=O)C3CC3)c2)c(F)c1 [Exe. 051]	7.63	7.47	6.13	8.28	–	–
CC1CN(c2cc(NC(=O)Nc3ccc(Oc4ccnc(NC(=O)C5CC5)c4)c(F)c3)cc(C(F)(F)F)c2)CCO1 (stereo not shown) [Exe. 162]	7.65	7.51	6.48	8.17	–	–
N#Cc1cc(NC(=O)Nc2ccc(Oc3ccnc(NC(=O)C4CC4)c3)cc2)cc(C(F)(F)F)c1 [Exe. 152]	7.14	7.48	6.41	8.15	–	–
CN(C)C1CCN(c2cc(NC(=O)Nc3ccc(Oc4ccnc(NC(=O)C5CC5)c4)c(F)c3)cc(C(F)(F)F)c2)C1 (stereo not shown) [Exe. 048]	7.96	7.60	6.63	8.14	–	–
O=C(Nc1ccc(Oc2ccnc(NC(=O)C3CC3)c2)c(F)c1)Nc1ccc(Cl)c(OC(F)(F)F)c1 [Exe. 063]	7.83	7.54	5.63	8.26	–	–
N#Cc1ccc(NC(=O)Nc2ccc(Oc3ccnc(NC(=O)C4CC4)c3)c(F)c2)cc1C(F)(F)F [Exe. 062]	8.15	–	–	8.14	7.53	5.52
CN1CCC(Oc2ccc(NC(=O)Nc3ccc(Oc4ccnc(NC(=O)C5CC5)c4)c(F)c3)cc2C(F)(F)F)CC1 [Exe. 188]	7.72	7.63	7.47	7.76	–	–
Cc1cc(NC(=O)Nc2ccc(Cl)c(C(C)(F)F)c2)ccc1Oc1ccnc(NC(=O)C2CC2)c1 [Exe. 235]	7.66	7.91	5.89	7.87	–	–
